Data reported in ChEMBL document CHEMBL1201862, “PubChem BioAssay data set” (2004).
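Assay format: 96-well plates, 48-hour exposure. GI50: concentration for 50% inhibition of growth.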 Active and inactive are the calls of the source. Cut-off read from the data, not from the text of the source: active = GI50 up to about 1.1 µM and inactive = higher.

Assays:
Assay in all cases: NCI tumour cell line growth inhibition, 48 h
SF-268 = test system: SF-268
KM-20L2 = test system: KM-20L2
K562 = test system: K562
M14 = test system: M14
IGROV-1 = test system: IGROV-1
SK-MEL-28 = test system: SK-MEL-28
ACHN = test system: ACHN
NCI-H226 = test system: NCI-H226
Malme-3M = test system: Malme-3M
SF-295 = test system: SF-295
SNB-75 = test system: SNB-75
NCI-H460 = test system: NCI-H460
SF-539 = test system: SF-539
XF498 = test system: XF498
HCT-116 = test system: HCT-116
KM12 = test system: KM12
OVCAR-4 = test system: OVCAR-4
UACC-257 = test system: UACC-257
HCC 2998 = test system: HCC 2998
MDA-N = test system: MDA-N

Row | SMILES | GI50 (SF-268) | GI50 (KM-20L2) | GI50 (K562) | GI50 (M14) | GI50 (IGROV-1) | GI50 (SK-MEL-28) | GI50 (ACHN) | GI50 (NCI-H226) | GI50 (Malme-3M) | GI50 (SF-295) | GI50 (SNB-75) | GI50 (NCI-H460) | GI50 (SF-539) | GI50 (XF498) | GI50 (HCT-116) | GI50 (KM12) | GI50 (OVCAR-4) | GI50 (UACC-257) | GI50 (HCC 2998) | GI50 (MDA-N)
1 | COc1cc2c(cc1OC)C(Cl)C(c1ccc(Cl)cc1)=C2Cl (configuration not stated) | > 10 µM (inactive) | 18.1 µM (inactive) | 7.66 µM (inactive) | 15.4 µM (inactive) | 19.3 µM (inactive) | 19.1 µM (inactive) | 15.2 µM (inactive) | 22 µM (inactive) | 22 µM (inactive) | 14.5 µM (inactive) | 19.1 µM (inactive) | 13.5 µM (inactive) | 17.1 µM (inactive) | 3.45 µM (inactive) |  |  |  |  |  | 
2 | Cc1nc(=O)n2c(c1C(=O)Nc1ccc(Cl)cc1)NCCC2 | > 100 µM (inactive) |  | > 100 µM (inactive) | > 100 µM (inactive) | > 100 µM (inactive) | > 100 µM (inactive) | > 100 µM (inactive) | > 100 µM (inactive) | > 100 µM (inactive) | > 100 µM (inactive) |  | > 100 µM (inactive) | > 100 µM (inactive) | > 100 µM (inactive) | > 100 µM (inactive) | > 100 µM (inactive) | > 100 µM (inactive) |  |  | 
3 | CCCCc1c2c(nc3c1CCCC3=O)CCCC2 | > 100 µM (inactive) | 20 µM (inactive) | > 100 µM (inactive) | > 100 µM (inactive) | > 100 µM (inactive) | > 100 µM (inactive) | > 100 µM (inactive) | 18.3 µM (inactive) | 50.2 µM (inactive) | > 100 µM (inactive) |  | > 100 µM (inactive) | > 100 µM (inactive) | > 100 µM (inactive) | > 100 µM (inactive) | > 100 µM (inactive) |  | > 10 µM (inactive) | > 100 µM (inactive) | 
4 | C=C(C(=C)P(=S)(c1ccccc1)c1ccccc1)P(=S)(c1ccccc1)c1ccccc1 | > 100 µM (inactive) | > 100 µM (inactive) | > 100 µM (inactive) | > 100 µM (inactive) | > 100 µM (inactive) | > 100 µM (inactive) | > 100 µM (inactive) |  | 74.8 µM (inactive) | > 100 µM (inactive) | 45.5 µM (inactive) | > 100 µM (inactive) | > 100 µM (inactive) | 73.6 µM (inactive) | > 100 µM (inactive) | > 100 µM (inactive) | 34.8 µM (inactive) | > 100 µM (inactive) | > 100 µM (inactive) | 
5 | Cc1cc(NS(=O)(=O)c2ccc(NC(=O)c3cccc4cc5ccccc5nc34)cc2)no1 | 12.9 µM (inactive) | 27.7 µM (inactive) | 18.1 µM (inactive) | 23.5 µM (inactive) | 15.8 µM (inactive) | 8.36 µM (inactive) | 11.1 µM (inactive) | 0.191 µM (active) | 14.8 µM (inactive) | 19.9 µM (inactive) | 17.6 µM (inactive) | 18.3 µM (inactive) | 11.6 µM (inactive) | 17 µM (inactive) | 6.7 µM (inactive) | 16.4 µM (inactive) | 18.3 µM (inactive) | 27.4 µM (inactive) |  | 
6 | COC(c1cccc(C(O)(C(F)(F)F)C(F)(F)F)c1)(C(F)(F)F)C(F)(F)F | 23.7 µM (inactive) | 16.9 µM (inactive) |  | 18.7 µM (inactive) | 20.2 µM (inactive) | > 10 µM (inactive) | 15.8 µM (inactive) | 18.2 µM (inactive) | 19.4 µM (inactive) | 15.7 µM (inactive) | 17.5 µM (inactive) | 18.3 µM (inactive) | 19.2 µM (inactive) | 15 µM (inactive) | 16.9 µM (inactive) | 19.5 µM (inactive) | 16.7 µM (inactive) | 27.1 µM (inactive) | 8.79 µM (inactive) | 
7 | O=C1NP23(OCCO2)Oc2ccccc2C3(C(F)(F)F)O1 (configuration not stated) | > 100 µM (inactive) |  | > 100 µM (inactive) | > 100 µM (inactive) |  | > 100 µM (inactive) | > 100 µM (inactive) | > 100 µM (inactive) | > 100 µM (inactive) | > 100 µM (inactive) | > 100 µM (inactive) | 78.3 µM (inactive) | > 100 µM (inactive) | > 100 µM (inactive) | > 100 µM (inactive) | > 100 µM (inactive) | > 100 µM (inactive) | > 100 µM (inactive) |  | 
8 | CC(O)/C=C/C(CCC(C)CO)C(C)C (configuration not stated) | > 100 µM (inactive) |  | > 100 µM (inactive) | > 100 µM (inactive) | > 100 µM (inactive) | > 100 µM (inactive) | > 100 µM (inactive) |  | > 100 µM (inactive) | > 100 µM (inactive) | > 100 µM (inactive) | > 100 µM (inactive) | > 100 µM (inactive) | > 100 µM (inactive) | > 100 µM (inactive) | > 100 µM (inactive) | > 100 µM (inactive) | > 100 µM (inactive) | > 100 µM (inactive) | 
9 | C[n+]1ccn2c3nc4ccccc4nc3c([O-])c(C#N)c21 | > 100 µM (inactive) |  | > 100 µM (inactive) | > 100 µM (inactive) | > 31.4 µM (inactive) | > 100 µM (inactive) | > 100 µM (inactive) | > 100 µM (inactive) | > 100 µM (inactive) | > 100 µM (inactive) | > 100 µM (inactive) | > 10 µM (inactive) | > 100 µM (inactive) | > 100 µM (inactive) | > 100 µM (inactive) | > 10 µM (inactive) | > 100 µM (inactive) | > 100 µM (inactive) | > 10 µM (inactive) | > 100 µM (inactive)
10 | Cc1cc(C)n(CCNCCn2nc(C)cc2C)n1 | > 100 µM (inactive) | > 100 µM (inactive) | > 100 µM (inactive) | > 100 µM (inactive) |  | 91 µM (inactive) | > 100 µM (inactive) |  |  | > 100 µM (inactive) | > 100 µM (inactive) | > 100 µM (inactive) | > 100 µM (inactive) |  | > 100 µM (inactive) | > 100 µM (inactive) | > 100 µM (inactive) | > 100 µM (inactive) | > 100 µM (inactive) | 
11 | CC(=O)c1ccc(NC(=O)C(=O)C(C#N)CC(C)(C)C=O)cc1 (configuration not stated) | > 100 µM (inactive) | > 100 µM (inactive) | > 100 µM (inactive) | > 100 µM (inactive) | > 100 µM (inactive) | > 100 µM (inactive) | > 100 µM (inactive) | > 100 µM (inactive) | > 100 µM (inactive) | > 100 µM (inactive) |  | > 100 µM (inactive) | > 100 µM (inactive) | > 100 µM (inactive) | > 100 µM (inactive) | > 100 µM (inactive) | > 100 µM (inactive) | > 100 µM (inactive) | > 100 µM (inactive) | 
12 | O=P1(Oc2ccc(Cl)cc2Cl)Oc2cc3ccccc3cc2O1 | > 100 µM (inactive) | > 100 µM (inactive) | 46.2 µM (inactive) |  | 64.7 µM (inactive) | > 100 µM (inactive) |  | > 76.6 µM (inactive) | > 100 µM (inactive) | 59.3 µM (inactive) | 70.8 µM (inactive) | 49.9 µM (inactive) | > 84.9 µM (inactive) | 33.1 µM (inactive) | > 78.2 µM (inactive) | 43.8 µM (inactive) | 76 µM (inactive) | > 100 µM (inactive) | 20.8 µM (inactive) | 
13 | CCOC(=O)C(N=C(c1ccccc1)c1ccccc1)N(C(=O)OC(C)(C)C)C(=O)OC(C)(C)C (configuration not stated) | > 100 µM (inactive) | > 100 µM (inactive) | > 100 µM (inactive) |  | > 100 µM (inactive) | > 100 µM (inactive) | > 100 µM (inactive) | > 100 µM (inactive) | > 100 µM (inactive) | > 100 µM (inactive) | 82 µM (inactive) |  | > 100 µM (inactive) |  | > 100 µM (inactive) | > 100 µM (inactive) | > 100 µM (inactive) | > 100 µM (inactive) | > 100 µM (inactive) | 
14 | Cc1ccccc1NC(=O)CSc1nnc(-c2ccc(/N=C\c3ccc(Cl)cc3)cc2)o1 | > 100 µM (inactive) | > 100 µM (inactive) | > 100 µM (inactive) | > 100 µM (inactive) |  | > 100 µM (inactive) | > 100 µM (inactive) | > 100 µM (inactive) | > 100 µM (inactive) | > 100 µM (inactive) | > 100 µM (inactive) | > 100 µM (inactive) |  | > 100 µM (inactive) | > 100 µM (inactive) | > 100 µM (inactive) | > 100 µM (inactive) | > 100 µM (inactive) |  | 
15 | C=C1CC(OC)(C(O)C(=O)N[C@H]2OCO[C@H]3C2O[C@H](C[C@H](O)COC)C(C)(C)C3OC)O[C@H](C)[C@@H]1C (some centres not stated) | < 0.00773 µM (active) | < 0.00773 µM (active) | < 0.00773 µM (active) |  | < 0.00773 µM (active) | < 0.00773 µM (active) |  | < 0.00773 µM (active) |  | < 0.00773 µM (active) | < 0.00773 µM (active) | < 0.00773 µM (active) | < 0.00773 µM (active) | < 0.00773 µM (active) | < 0.00773 µM (active) | < 0.00773 µM (active) | < 0.00773 µM (active) | < 0.00773 µM (active) | < 0.00773 µM (active) | 
16 | CSCC[C@@H](NC(=O)[C@H](CC(C)C)NC(=O)C(Cc1cnc[nH]1)NC(=O)CNC(=O)[C@@H](NC(=O)[C@H](C)NC(=O)[C@H](Cc1c[nH]c2ccccc12)NC(=O)[C@H](CCC(N)=O)NC(=O)[C@@H](N)CC(N)=O)C(C)C)C(N)=O (some centres not stated) | > 100 µM (inactive) | > 100 µM (inactive) | > 100 µM (inactive) |  | > 100 µM (inactive) | > 100 µM (inactive) |  | > 100 µM (inactive) | > 100 µM (inactive) | > 100 µM (inactive) | > 100 µM (inactive) | > 100 µM (inactive) | > 100 µM (inactive) | > 100 µM (inactive) | > 100 µM (inactive) | > 100 µM (inactive) | > 100 µM (inactive) | > 88.7 µM (inactive) | > 100 µM (inactive) | 
